Like-named read-outs stand apart in the source and are kept apart here.
What was measured:
Format in all cases: in vivo
[1] = test system: barnyardgrass (Echinochloa crus-galli); test: Test A pre-/postemergence greenhouse herbicide test, visual injury rating 0-100; details: for pest or weed control at 500 g/ha: 500 g ai/ha
Summary of the method: (§1)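 Visual injury scored on a 0–100 scale versus untreated controls roughly 10 days after treatment in greenhouse. Treatments were preemergence soil sprays plus postemergence sprays to plants 2–10 cm tall at one- to two-leaf stage, in a surfactant-containing solvent formulation.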

corn (Zea mays) [2] = test: as above; details: for plant injury at 500 g/ha: 500 g ai/ha
Summary of the method: as §1

[3] = test system: giant foxtail (Setaria faberii); test: as above; details: for pest or weed control at 500 g/ha: 500 g ai/ha
Summary of the method: as §1

[4] = test system: large (Lg) crabgrass (Digitaria sanguinalis); test: as above; details: for pest or weed control at 500 g/ha: 500 g ai/ha
Summary of the method: as §1

[5] = test system: morningglory (Ipomoea spp.); test: as above; details: for pest or weed control at 500 g/ha: 500 g ai/ha
Summary of the method: as §1

[6] = test system: pigweed (Amaranthus retroflexus); test: as above; details: for pest or weed control at 500 g/ha: 500 g ai/ha
Summary of the method: as §1

[7] = test system: velvetleaf (Abutilon theophrasti); test: as above; details: Abutilon theophrasti, 240 h, read-out: Plant response rating (0 to 100 scale), Velvetleaf; for pest or weed control at 500 g/ha: 500 g ai/ha
Summary of the method: as §1

[8] = test system: wheat (Triticum aestivum); test: as above; details: for plant injury at 500 g/ha: 500 g ai/ha
Summary of the method: as §1

[9] = test system: Italian ryegrass (Lolium multiflorum); test: Test C pre-/postemergence greenhouse test, plant response rating 0-100; details: Lolium multiflorum; for pest or weed control at 62 g/ha: 62 g ai/ha; for pest or weed control at 125 g/ha: 125 g ai/ha; for pest or weed control at 250 g/ha: 250 g ai/ha; for pest or weed control at 500 g/ha: 500 g ai/ha
Summary of the method: (§2)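 Scores run from 0, no effect, to 100, complete control, assigned by eye after treated plants and controls spent 13 to 15 days in a greenhouse. Soil-applied treatment went onto freshly sown seed in loam and sand; foliar treatment hit seedlings at the 1- to 4-leaf stage.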

corn (Zea mays) [10] = test: as above; details: Zea mays; for Corn plant response rating (crop injury, 0 = no effect, 100 = complete kill) at 250 g/ha: 250 g ai/ha; for Corn plant response rating (crop injury, 0 = no effect, 100 = complete kill) at 500 g/ha: 500 g ai/ha
Summary of the method: as §2

[11] = test system: pigweed (Amaranthus retroflexus); test: as above; details: Amaranthus retroflexus; for pest or weed control at 62 g/ha: 62 g ai/ha; for pest or weed control at 125 g/ha: 125 g ai/ha; for pest or weed control at 250 g/ha: 250 g ai/ha; for pest or weed control at 500 g/ha: 500 g ai/ha
Summary of the method: as §2

[12] = test system: ragweed (common ragweed, Ambrosia elatior); test: as above; details: Ambrosia artemisiifolia; for pest or weed control at 62 g/ha: 62 g ai/ha; for pest or weed control at 125 g/ha: 125 g ai/ha; for pest or weed control at 250 g/ha: 250 g ai/ha
Summary of the method: as §2

[13] = test system: velvetleaf (Abutilon theophrasti); test: as above; details: Abutilon theophrasti; for pest or weed control at 62 g/ha: 62 g ai/ha; for pest or weed control at 125 g/ha: 125 g ai/ha; for pest or weed control at 250 g/ha: 250 g ai/ha; for pest or weed control at 500 g/ha: 500 g ai/ha
Summary of the method: as §2

[14] = post-emergence, Postemergence, 125 g ai/ha
[15] = post-emergence, Postemergence, read-out: Plant response rating (0 to 100), Ryegrass, Italian
[16] = post-emergence, Postemergence, scale 0 to 100
[17] = pre-emergence, Preemergence, read-out: Plant response rating, Ryegrass, Italian
[18] = post-emergence, Postemergence, read-out: Plant response rating (0 to 100), Pigweed
[19] = pre-emergence, Preemergence, read-out: Plant response rating, Pigweed
[20] = post-emergence, Postemergence, read-out: Plant response rating (0 to 100), Ragweed
[21] = pre-emergence, Preemergence, read-out: Plant response rating, Ragweed
[22] = post-emergence, Postemergence, read-out: Plant response rating (0 to 100), Velvetleaf
[23] = pre-emergence, Preemergence, read-out: Plant response rating, Velvetleaf

COC(OC)(c1ccccc1)c1c[nH]nc1-c1cc(Cl)cc(Cl)c1 [Compound 13, 3-(3,5-dichlorophenyl)-4-(dimethoxyphenylmethyl)-1H-pyrazole]
50%: pest or weed control at 62 g/ha [12, 20] | pest or weed control at 125 g/ha [12, 20]
70%: pest or weed control at 500 g/ha ([7]; pre-emergence, Preemergence) | pest or weed control at 62 g/ha [13, 22]
90%: pest or weed control at 125 g/ha ([6]; Amaranthus retroflexus, post-emergence, 240 h, Postemergence, 125 g ai/ha, read-out: Plant response rating (0 to 100 scale), Pigweed) | pest or weed control at 500 g/ha ([7]; post-emergence, Postemergence) | pest or weed control at 62 g/ha [11, 19]
100%: pest or weed control at 500 g/ha ([6]; Amaranthus retroflexus, post-emergence, 240 h, Postemergence, read-out: Plant response rating (0 to 100 scale), Pigweed) | pest or weed control at 500 g/ha ([6]; Amaranthus retroflexus, pre-emergence, 240 h, Preemergence, read-out: Plant response rating (0 to 100 scale), Pigweed) | pest or weed control at 125 g/ha [11, 18] | pest or weed control at 250 g/ha [11, 16] | pest or weed control at 500 g/ha [11, 16] | pest or weed control at 125 g/ha [11, 19] | pest or weed control at 250 g/ha ([11]; pre-emergence, Preemergence) | pest or weed control at 500 g/ha ([11]; pre-emergence, Preemergence) | pest or weed control at 125 g/ha [12, 21] | pest or weed control at 250 g/ha ([12]; pre-emergence, Preemergence) | pest or weed control at 500 g/ha ([13]; pre-emergence, Preemergence)
60%: pest or weed control at 62 g/ha [13, 23]
0%: pest or weed control at 125 g/ha ([1]; Echinochloa crus-galli, post-emergence, 240 h, Postemergence, 125 g ai/ha, read-out: Plant response rating (0 to 100 scale), Barnyardgrass) | pest or weed control at 500 g/ha ([1]; Echinochloa crus-galli, post-emergence, 240 h, Postemergence, read-out: Plant response rating (0 to 100 scale), Barnyardgrass) | pest or weed control at 500 g/ha ([1]; Echinochloa crus-galli, pre-emergence, 240 h, Preemergence, read-out: Plant response rating (0 to 100 scale), Barnyardgrass) | plant injury at 125 g/ha (corn (Zea mays) [2]; Zea mays, post-emergence, 240 h, Postemergence, 125 g ai/ha, read-out: Plant response rating (0 to 100 scale), Corn) | plant injury at 500 g/ha (corn (Zea mays) [2]; Zea mays, post-emergence, 240 h, Postemergence, read-out: Plant response rating (0 to 100 scale), Corn) | plant injury at 500 g/ha (corn (Zea mays) [2]; Zea mays, pre-emergence, 240 h, Preemergence, read-out: Plant response rating (0 to 100 scale), Corn) | pest or weed control at 125 g/ha ([3]; Setaria faberi, post-emergence, 240 h, Postemergence, 125 g ai/ha, read-out: Plant response rating (0 to 100 scale), Foxtail, Giant) | pest or weed control at 500 g/ha ([3]; Setaria faberi, post-emergence, 240 h, Postemergence, read-out: Plant response rating (0 to 100 scale), Foxtail, Giant) | pest or weed control at 500 g/ha ([3]; Setaria faberi, pre-emergence, 240 h, Preemergence, read-out: Plant response rating (0 to 100 scale), Foxtail, Giant) | pest or weed control at 125 g/ha ([4]; Digitaria sanguinalis, post-emergence, 240 h, Postemergence, 125 g ai/ha, read-out: Plant response rating (0 to 100 scale), Crabgrass, Large) | pest or weed control at 500 g/ha ([4]; Digitaria sanguinalis, post-emergence, 240 h, Postemergence, read-out: Plant response rating (0 to 100 scale), Crabgrass, Large) | pest or weed control at 500 g/ha ([4]; Digitaria sanguinalis, pre-emergence, 240 h, Preemergence, read-out: Plant response rating (0 to 100 scale), Crabgrass, Large) | pest or weed control at 125 g/ha ([5]; Ipomoea, post-emergence, 240 h, Postemergence, 125 g ai/ha, read-out: Plant response rating (0 to 100 scale), Morningglory) | pest or weed control at 500 g/ha ([5]; Ipomoea, post-emergence, 240 h, Postemergence, read-out: Plant response rating (0 to 100 scale), Morningglory) | pest or weed control at 500 g/ha ([5]; Ipomoea, pre-emergence, 240 h, Preemergence, read-out: Plant response rating (0 to 100 scale), Morningglory) | plant injury at 125 g/ha ([8]; Triticum aestivum, post-emergence, 240 h, Postemergence, 125 g ai/ha, read-out: Plant response rating (0 to 100 scale), Wheat) | plant injury at 500 g/ha ([8]; Triticum aestivum, post-emergence, 240 h, Postemergence, read-out: Plant response rating (0 to 100 scale), Wheat) | plant injury at 500 g/ha ([8]; Triticum aestivum, pre-emergence, 240 h, Preemergence, read-out: Plant response rating (0 to 100 scale), Wheat) | pest or weed control at 62 g/ha [9, 15] | pest or weed control at 125 g/ha [9, 15] | pest or weed control at 250 g/ha [9, 16] | pest or weed control at 500 g/ha [9, 16] | pest or weed control at 62 g/ha [9, 17] | pest or weed control at 125 g/ha [9, 17] | pest or weed control at 250 g/ha ([9]; pre-emergence, Preemergence) | pest or weed control at 500 g/ha ([9]; pre-emergence, Preemergence) | plant injury at 62 g/ha (corn (Zea mays) [10]; post-emergence, Postemergence, 62 g ai/ha) | plant injury at 125 g/ha (corn (Zea mays) [10]; [14]) | Corn plant response rating (crop injury, 0 = no effect, 100 = complete kill) at 250 g/ha (corn (Zea mays) [10]; [16]) | Corn plant response rating (crop injury, 0 = no effect, 100 = complete kill) at 500 g/ha (corn (Zea mays) [10]; [16]) | Corn plant response rating (crop injury, 0 = no effect, 100 = complete kill) at 62 g/ha (corn (Zea mays) [10]; pre-emergence, Preemergence, 62 g ai/ha) | Corn plant response rating (crop injury, 0 = no effect, 100 = complete kill) at 125 g/ha (corn (Zea mays) [10]; pre-emergence, Preemergence, 125 g ai/ha) | Corn plant response rating (crop injury, 0 = no effect, 100 = complete kill) at 250 g/ha (corn (Zea mays) [10]; pre-emergence, Preemergence) | Corn plant response rating (crop injury, 0 = no effect, 100 = complete kill) at 500 g/ha (corn (Zea mays) [10]; pre-emergence, Preemergence)
80%: pest or weed control at 125 g/ha [7, 14] | pest or weed control at 500 g/ha ([12]; post-emergence, Postemergence, 500 g ai/ha, scale 0 to 100) | pest or weed control at 500 g/ha [13, 16]
85%: pest or weed control at 62 g/ha [12, 21] | pest or weed control at 250 g/ha [13, 16] | pest or weed control at 125 g/ha [13, 23]
75%: pest or weed control at 62 g/ha [11, 18] | pest or weed control at 250 g/ha [12, 16] | pest or weed control at 125 g/ha [13, 22] | pest or weed control at 250 g/ha ([13]; pre-emergence, Preemergence)
0: Barnyardgrass plant response rating (0 = no effect, 100 = complete control) ([1]; Preemergence, 125 g ai/ha) | Corn plant response rating (0 = no effect, 100 = complete control) (corn (Zea mays) [2]; Preemergence, 125 g ai/ha) | Foxtail, Giant plant response rating (0 = no effect, 100 = complete control) ([3]; Preemergence, 125 g ai/ha) | Crabgrass, Large plant response rating (0 = no effect, 100 = complete control) ([4]; Preemergence, 125 g ai/ha) | Morningglory plant response rating (0 = no effect, 100 = complete control) ([5]; Preemergence, 125 g ai/ha) | Wheat plant response rating (0 = no effect, 100 = complete control) ([8]; Preemergence, 125 g ai/ha)
70: Pigweed plant response rating (0 = no effect, 100 = complete control) ([6]; Preemergence, 125 g ai/ha)

— patent US10167262B2, “Herbicidal substituted 3-arylpyrazoles” (FMC CORPORATION, priority 2014, dated 2019)
